Tests used:
Assay type in all cases: in vivo
[1] = test system: ducksalad (Heteranthera limosa); test: Test B flooded paddy test; settings: Flood, 0 to 100 scale where 0 is no effect and 100 is complete control, 13 to 15 d
In short: (§1)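 Plants at 2-leaf stage flooded to 3 cm above soil, with compounds applied directly to paddy water and that depth maintained. Plants kept in greenhouse 13–15 d. Visual rating versus controls on a 0 (no effect) to 100 (complete control) scale.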

rice (Oryra sativa) = test: Test B flooded paddy test; settings: Flood, 0 to 100 scale where 0 is no effect and 100 is complete control, 13 to 15 d
In short: as §1

[2] = test system: sedge, umbrella (small-flower umbrella sedge, Cyperus difformis); test: Test B flooded paddy test; settings: Flood, 0 to 100 scale where 0 is no effect and 100 is complete control, 13 to 15 d
In short: as §1

[3] = test system: barnyardgrass (Echinochloa crus-galli); test: Test B flooded paddy test; settings: Flood, 0 to 100 scale where 0 is no effect and 100 is complete control, 13 to 15 d
In short: as §1

[4] = test system: ryegrass, Italian (Italian ryegrass, Lolium multiflorum); test: Test A preemergence; settings: Preemergence; for Plant response rating, Ryegrass, Italian: 125 g ai/ha, visual injury after approximately 10 d, 0 to 100 scale where 0 is no effect and 100 is complete control; for Ryegrass, Italian plant response rating (0 to 100 scale, 0 is no effect, 100 is complete control): 500 g ai/ha, visual injury approx. 10 d
Text: (§2) Seeds of plant species selected from barnyardgrass (Echinochloa crus-galli), Kochia (Kochia scoparia), ragweed (common ragweed, Ambrosia elatior), ryegrass, Italian (Italian ryegrass, Lolium multiflorum), crabgrass, large (Digitaria sanguinalis), giant foxtail (Setaria faberii), green foxtail (Setaria viridis), morningglory (Ipomoea spp.), pigweed (Amaranthus retroflexus), velvetleaf (Abutilon theophrasti), wheat (Triticum aestivum), and corn (Zea mays) were planted into a blend of loam soil and sand and treated preemergence with a directed soil spray using test chemicals formulated in anon-phytotoxic solvent mixture which included a surfactant.
(§3) At the same time, plants selected from these crop and weed species and also blackgrass (Alopecurus myosuroides), and Galium (catchweed bedstraw, Galium aparine) were planted in pots containing the same blend of loam soil and sand and treated with postemergence applications of test chemicals formulated in the same manner. Plants ranged in height from 2 to 10 cm and were in the one- to two-leaf stage for the postemergence treatment. Treated plants and untreated controls were maintained in a greenhouse for approximately 10 d, after which time all treated plants were compared to untreated controls and visually evaluated for injury. Plant response ratings, summarized in Table A, are based on a 0 to 100 scale where 0 is no effect and 100 is complete control. A dash (-) response means no test result.

[5] = test system: pigweed (Amaranthus retroflexus); test: Test A preemergence; settings: Preemergence; for Plant response rating, Pigweed: 125 g ai/ha, visual injury after approximately 10 d, 0 to 100 scale where 0 is no effect and 100 is complete control; for Pigweed plant response rating (0 to 100 scale, 0 is no effect, 100 is complete control): 500 g ai/ha, visual injury approx. 10 d
Text: as §2, §3

Kochia (Kochia scoparia) [6] = test: Test A preemergence; settings: Preemergence; for Plant response rating, Kochia: 125 g ai/ha, visual injury after approximately 10 d, 0 to 100 scale where 0 is no effect and 100 is complete control; for Kochia plant response rating (0 to 100 scale, 0 is no effect, 100 is complete control): 500 g ai/ha, visual injury approx. 10 d
Text: as §2, §3

[7] = test system: giant foxtail (Setaria faberii); test: Test A preemergence; settings: Preemergence; for Plant response rating, Foxtail, Giant: 125 g ai/ha, visual injury after approximately 10 d, 0 to 100 scale where 0 is no effect and 100 is complete control; for Foxtail, Giant plant response rating (0 to 100 scale, 0 is no effect, 100 is complete control): 500 g ai/ha, visual injury approx. 10 d
Text: as §2, §3

[8] = test system: ragweed (common ragweed, Ambrosia elatior); test: Test A preemergence; settings: Preemergence; for Plant response rating, Ragweed: 125 g ai/ha, visual injury after approximately 10 d, 0 to 100 scale where 0 is no effect and 100 is complete control; for Ragweed plant response rating (0 to 100 scale, 0 is no effect, 100 is complete control): 500 g ai/ha, visual injury approx. 10 d
Text: as §2, §3

[9] = test system: barnyardgrass (Echinochloa crus-galli); test: Test A preemergence; settings: Preemergence; for Plant response rating, Barnyardgrass: 125 g ai/ha, visual injury after approximately 10 d, 0 to 100 scale where 0 is no effect and 100 is complete control; for Barnyardgrass plant response rating (0 to 100 scale, 0 is no effect, 100 is complete control): 500 g ai/ha, visual injury approx. 10 d
Text: as §2, §3

[10] = test system: wheat (Triticum aestivum); test: Test A postemergence
Text: as §2, §3

[11] = test system: blackgrass (Alopecurus myosuroides); test: Test A postemergence; settings: for Blackgrass plant response rating: visual injury rating on 0 to 100 scale (0 no effect, 100 complete control), approx. 10 d
Text: as §2, §3

[12] = test system: ryegrass, Italian (Italian ryegrass, Lolium multiflorum); test: Test A postemergence
Text: as §2, §3

[13] = test system: pigweed (Amaranthus retroflexus); test: Test A postemergence
Text: as §2, §3

Kochia (Kochia scoparia) [14] = test: Test A postemergence
Text: as §2, §3

[15] = test system: Galium (catchweed bedstraw, Galium aparine); test: Test A postemergence
Text: as §2, §3

corn (Zea mays) = test: Test A postemergence
Text: as §2, §3

[16] = test system: giant foxtail (Setaria faberii); test: Test A postemergence
Text: as §2, §3

[17] = test system: ragweed (common ragweed, Ambrosia elatior); test: Test A postemergence
Text: as §2, §3

[18] = test system: barnyardgrass (Echinochloa crus-galli); test: Test A postemergence; settings: for Barnyardgrass plant response rating: visual injury rating on 0 to 100 scale (0 no effect, 100 complete control), approx. 10 d
Text: as §2, §3

[19] = 125 g ai/ha, postemergence, visual rating after approx. 10 d, 0 to 100 scale (0 no effect, 100 complete control)
[20] = Postemergence, 500 g ai/ha, 0 to 100 scale where 0 is no effect and 100 is complete control

SMILES	Plant response rating, Ryegrass, Italian [4]	Ryegrass, Italian plant response rating (0 to 100 scale, 0 is no effect, 100 is complete control) [4]	Plant response rating, Pigweed [5]	Pigweed plant response rating (0 to 100 scale, 0 is no effect, 100 is complete control) [5]	Plant response rating, Kochia (Kochia (Kochia scoparia) [6])	Kochia plant response rating (0 to 100 scale, 0 is no effect, 100 is complete control) (Kochia (Kochia scoparia) [6])	Plant response rating, Foxtail, Giant [7]	Foxtail, Giant plant response rating (0 to 100 scale, 0 is no effect, 100 is complete control) [7]	Plant response rating, Ragweed [8]	Ragweed plant response rating (0 to 100 scale, 0 is no effect, 100 is complete control) [8]	Plant response rating, Barnyardgrass [9]	Barnyardgrass plant response rating (0 to 100 scale, 0 is no effect, 100 is complete control) [9]	Plant response rating, Wheat [10, 19]	Plant response rating, Wheat [10, 20]	Plant response rating, Blackgrass [11, 20]	Plant response rating, Ryegrass, Italian [12, 19]	Plant response rating, Ryegrass, Italian [12, 20]	Plant response rating, Pigweed [13, 19]	Plant response rating, Pigweed [13, 20]	Plant response rating, Kochia (Kochia (Kochia scoparia) [14]; [19])	also measured
O=C1NCC(c2ccc(Oc3ccccc3)cc2)C1C(=O)Nc1ccccc1F (racemic) [Compound 534]	0	0	0	0	0	0	0	0	0	0	0	0	0	0	0	0	0	0	0	0	Plant response rating, Ducksalad ([1]; 500 g ai/ha): 0; Plant response rating, Rice (rice (Oryra sativa); 500 g ai/ha): 20; Plant response rating, Sedge, Umbrella ([2]; 500 g ai/ha): 0; Plant response rating, Barnyardgrass ([3]; 500 g ai/ha): 0; Blackgrass plant response rating ([11]; 125 g ai/ha, postemergence): 0; Plant response rating, Kochia (Kochia (Kochia scoparia) [14]; [20]): 0; Plant response rating, Galium [15, 19]: 0; Plant response rating, Galium [15, 20]: 0; Plant response rating, Corn (corn (Zea mays); [19]): 0; Plant response rating, Corn (corn (Zea mays); [20]): 0; Plant response rating, Foxtail, Giant [16, 19]: 0; Plant response rating, Foxtail, Giant [16, 20]: 0; Plant response rating, Ragweed [17, 19]: 0; Plant response rating, Ragweed [17, 20]: 0; Barnyardgrass plant response rating ([18]; 125 g ai/ha, postemergence): 0; Plant response rating, Barnyardgrass [18, 20]: 0
COc1c(F)ccc(NC(=O)C2C(=O)NCC2c2cc(F)cc(F)c2)c1F (racemic) [Compound 541]	0	20	0	0	0	20	90	90	0	0	90	90	20	80	60	20	40	0	0	0	Plant response rating, Ducksalad ([1]; 250 g ai/ha): 75; Plant response rating, Rice (rice (Oryra sativa); 250 g ai/ha): 0; Plant response rating, Sedge, Umbrella ([2]; 250 g ai/ha): 0; Plant response rating, Barnyardgrass ([3]; 250 g ai/ha): 35; Blackgrass plant response rating ([11]; 125 g ai/ha, postemergence): 30; Plant response rating, Kochia (Kochia (Kochia scoparia) [14]; [20]): 30; Plant response rating, Galium [15, 19]: 30; Plant response rating, Galium [15, 20]: 50; Plant response rating, Corn (corn (Zea mays); [19]): 0; Plant response rating, Corn (corn (Zea mays); [20]): 60; Plant response rating, Foxtail, Giant [16, 19]: 80; Plant response rating, Foxtail, Giant [16, 20]: 90; Plant response rating, Ragweed [17, 19]: 0; Plant response rating, Ragweed [17, 20]: 30; Barnyardgrass plant response rating ([18]; 125 g ai/ha, postemergence): 90; Plant response rating, Barnyardgrass [18, 20]: 90
O=C1NCC(c2cc(F)ccc2F)C1C(=O)Nc1ccc(F)cc1F (racemic) [Compound 545]	0	0	0	0	0	0	80	90	0	0	20	70	0	0	0	0	0	0	0	0	Plant response rating, Ducksalad ([1]; 250 g ai/ha): 0; Plant response rating, Rice (rice (Oryra sativa); 250 g ai/ha): 0; Plant response rating, Sedge, Umbrella ([2]; 250 g ai/ha): 0; Plant response rating, Barnyardgrass ([3]; 250 g ai/ha): 0; Plant response rating, Blackgrass [11, 19]: 0; Plant response rating, Kochia (Kochia (Kochia scoparia) [14]; [20]): 0; Plant response rating, Galium [15, 19]: 0; Plant response rating, Galium [15, 20]: 0; Plant response rating, Corn (corn (Zea mays); [19]): 0; Plant response rating, Corn (corn (Zea mays); [20]): 0; Plant response rating, Foxtail, Giant [16, 19]: 0; Plant response rating, Foxtail, Giant [16, 20]: 70; Plant response rating, Ragweed [17, 19]: 0; Plant response rating, Ragweed [17, 20]: 0; Plant response rating, Barnyardgrass [18, 19]: 0; Plant response rating, Barnyardgrass [18, 20]: 80

— patent US12077503B2, “Substituted cyclic amides and their use as herbicides” (FMC CORPORATION, priority 2015, dated 2024)
